The target of one experiment is T1, human Gcg receptor (Homo sapiens, UniProt P47871).
T1 construct: expressed in transfected cells; crude membranes
Put plainly: [125I]-Glucagon binding (SPA), human Gcg receptor. To be noted: read-out: hGLcgR Ki, nM (SEM, n). In outline: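 Scintillation counts are taken after membranes and WGA beads incubate and settle for 12 hours at room temperature. Buffer is 25 mM HEPES, pH 7.4, with CaCl2, MgCl2, bacitracin and Tween-20. Ki values, from four-parameter IC50 fits, are geometric means over independent days.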

The target in the next experiment is T2, human GIP receptor (Homo sapiens, UniProt P48546).
T2 construct: expressed in transfected cells; crude membranes
T2 sequence (P48546 22-466): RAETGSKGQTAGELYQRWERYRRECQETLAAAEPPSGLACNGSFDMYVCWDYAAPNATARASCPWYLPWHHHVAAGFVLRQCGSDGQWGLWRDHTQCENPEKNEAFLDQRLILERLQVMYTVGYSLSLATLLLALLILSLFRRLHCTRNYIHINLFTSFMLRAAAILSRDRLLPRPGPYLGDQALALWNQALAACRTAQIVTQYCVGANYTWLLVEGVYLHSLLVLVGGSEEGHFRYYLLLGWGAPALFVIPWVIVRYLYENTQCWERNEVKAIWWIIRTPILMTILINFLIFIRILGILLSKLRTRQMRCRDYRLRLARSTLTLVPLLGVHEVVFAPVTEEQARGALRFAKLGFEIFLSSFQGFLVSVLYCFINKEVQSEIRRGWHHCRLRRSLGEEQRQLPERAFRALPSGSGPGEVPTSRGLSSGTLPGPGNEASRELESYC
The experiment in a line: [125I]-GIP binding (SPA), human GIP receptor. Conditions: read-out: hGIPR Ki, nM (SEM, n).

Experiment [1] deals with human GLP-1 receptor (GLP-1R) (Homo sapiens, UniProt P43220). The experiment in a line: cAMP pharmacological functional assay in presence of casein, hGLP-1R. The format is cell-based. Conditions: HEK293 cells expressing hGLP-1R, 0.1% Casein, geometric mean; read-out: hGLP1R cAMP Rel EC50 nM (SEM, n).
The target in experiment [2] is T3, gastric inhibitory peptide receptor (GIPR) (Homo sapiens, UniProt P48546).
T3 sequence (P48546 22-466): T2 sequence (P48546 22-466)
The experiment in a line: cAMP pharmacological functional assay in presence of casein, hGIPR. The format is cell-based. To be noted: HEK293 cells expressing hGIPR, 0.1% Casein, geometric mean; read-out: hGIPR cAMP Rel EC50 nM (SEM, n).

The target of a further experiment is human GLP-1R (Homo sapiens, UniProt P43220). Put plainly: [125I]-GLP-1 binding (SPA), human GLP-1 receptor. Details: expressed in transfected cells; crude membranes. To be noted: read-out: hGLP1R Ki, (nM) (SEM, n). Put shortly:
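Frozen cell pellets are lysed on ice in hypotonic Tris buffer, pH 7.5, homogenized, and centrifuged to a membrane pellet resuspended at about 1 to 3 mg/mL. Binding is then measured in HEPES-based buffer at pH 7.4, and curves are fitted to give IC50 and Ki.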

Numbered stars: 1 amine (or outer) side, 2 acyl side, 3 side chain; on linkers, the order of the positions; unused ones are H or OH. Square brackets hold non-standard residues; d marks the D form. Side chains are listed from the residue outwards. Peptide text beside a SMILES is read from it. * marks the point of attachment. C18 diacid = O=C(O)CCCCCCCCCCCCCCCCC(=O)*; γGlu = O=C(O)[C@H](CCC(=O)[*:2])N[*:1]; AEEA = NCCOCCOCC(=O)O; Aib = CC(C)(N)C(=O)O

Usually Ki stands for a measure of affinity in units of concentration, obtained from inhibition or displacement. Usually EC50 stands for the concentration giving half of the maximal effect.

T1 sequence (P47871 26-477): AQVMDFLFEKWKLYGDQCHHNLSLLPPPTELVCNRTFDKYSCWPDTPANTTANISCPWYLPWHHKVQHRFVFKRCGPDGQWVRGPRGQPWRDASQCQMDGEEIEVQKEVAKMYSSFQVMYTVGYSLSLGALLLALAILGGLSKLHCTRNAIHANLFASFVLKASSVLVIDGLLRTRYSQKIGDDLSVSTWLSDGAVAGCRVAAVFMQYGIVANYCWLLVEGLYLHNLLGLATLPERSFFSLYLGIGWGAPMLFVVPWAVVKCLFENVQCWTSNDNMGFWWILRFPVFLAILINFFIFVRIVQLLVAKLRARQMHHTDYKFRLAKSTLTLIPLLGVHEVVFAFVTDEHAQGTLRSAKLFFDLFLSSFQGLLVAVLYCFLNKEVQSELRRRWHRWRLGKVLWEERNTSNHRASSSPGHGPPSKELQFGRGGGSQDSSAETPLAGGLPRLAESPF
Sequence of human GLP-1R (P43220 24-463): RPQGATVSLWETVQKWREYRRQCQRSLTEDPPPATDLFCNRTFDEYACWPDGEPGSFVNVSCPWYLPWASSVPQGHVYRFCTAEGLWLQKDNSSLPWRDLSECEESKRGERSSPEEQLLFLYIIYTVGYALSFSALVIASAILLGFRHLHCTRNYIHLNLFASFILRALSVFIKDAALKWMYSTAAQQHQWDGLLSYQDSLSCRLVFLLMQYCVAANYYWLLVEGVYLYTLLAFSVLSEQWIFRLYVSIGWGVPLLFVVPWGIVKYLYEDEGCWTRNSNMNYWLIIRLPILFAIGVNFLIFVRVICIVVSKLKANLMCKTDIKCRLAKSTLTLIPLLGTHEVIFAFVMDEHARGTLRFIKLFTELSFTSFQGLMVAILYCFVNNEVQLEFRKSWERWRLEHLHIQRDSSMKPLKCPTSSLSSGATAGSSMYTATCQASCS
Sequence of human GLP-1 receptor (GLP-1R) (P43220 24-463): as above

For the compound `CC[C@H](C)[C@H](NC(=O)[C@H](CC(C)C)NC(=O)[C@](C)(Cc1ccc(O)cc1)NC(=O)[C@@H](CCC(=O)O)NC(=O)[C@@H](NC(=O)[C@H](Cc1ccccc1)NC(=O)[C@H](CCC(=O)O)NC(=O)C(C)(C)NC(=O)[C@H](CCC(N)=O)NC(=O)[C@H](C)NC(=O)[C@H](CCCCNC(=O)COCCOCCNC(=O)COCCOCCNC(=O)CC[C@H](NC(=O)CCCCCCCCCCCCCCCCC(=O)O)C(=O)O)NC(=O)[C@H](CCCN)NC(=O)[C@H](CC(=O)O)NC(=O)[C@H](CC(C)C)NC(=O)[C@](C)(CC(C)C)NC(=O)[C@@H](NC(=O)[C@H](CO)NC(=O)[C@H](Cc1ccncc1)NC(=O)[C@H](CC(=O)O)NC(=O)[C@H](CO)NC(=O)[C@@H](NC(=O)[C@](C)(Cc1ccccc1F)NC(=O)[C@@H](NC(=O)CNC(=O)[C@H](CCC(=O)O)NC(=O)C(C)(C)NC(=O)[C@@H](N)Cc1ccc(O)cc1)[C@@H](C)O)[C@@H](C)O)[C@@H](C)CC)[C@@H](C)CC)C(=O)N[C@@H](CCC(=O)O)C(=O)NCC(=O)NCC(=O)N1CCC[C@H]1C(=O)N[C@@H](CO)C(=O)N[C@@H](CO)C(=O)NCC(N)=O` [Example 264], the Ki on human Gcg receptor is 388 nM; on human GIP receptor it was 0.015 nM; at human GLP-1R it was 0.412 nM. Also, the concentration for a half-maximal effect (EC50) was found to be 0.0229 nM in experiment [1] and 0.0196 nM in experiment [2].

Turning to `CC[C@H](C)[C@H](NC(=O)[C@H](CC(C)C)NC(=O)C(C)(Cc1ccc(O)cc1)NC(=O)[C@@H](CCC(=O)O)NC(=O)[C@@H](NC(=O)[C@H](Cc1ccccc1)NC(=O)[C@H](CCC(=O)O)NC(=O)C(C)(C)NC(=O)[C@H](CCC(N)=O)NC(=O)[C@H](C)NC(=O)[C@H](CCCCNC(=O)COCCOCCNC(=O)COCCOCCNC(=O)CC[C@H](NC(=O)CCCCCCCCCCCCCCCCC(=O)O)C(=O)O)NC(=O)[C@H](CCCN)NC(=O)[C@H](CC(=O)O)NC(=O)[C@H](CC(C)C)NC(=O)C(C)(CC(C)C)NC(=O)[C@@H](NC(=O)[C@H](CO)NC(=O)[C@H](Cc1ccncc1)NC(=O)[C@H](CC(=O)O)NC(=O)[C@H](CO)NC(=O)[C@@H](NC(=O)C(C)(Cc1ccccc1F)NC(=O)[C@@H](NC(=O)CNC(=O)[C@H](CCC(=O)O)NC(=O)C(C)(C)NC(=O)[C@@H](N)Cc1ccc(O)cc1)[C@@H](C)O)[C@@H](C)O)[C@@H](C)CC)[C@@H](C)CC)C(=O)N[C@@H](CCC(=O)O)C(=O)NCC(=O)NCC(N)=O` (stereo partly drawn) [Example 265], the results for the Ki at human Gcg receptor, at human GIP receptor and at human GLP-1R were 567 nM, 0.0224 nM and 0.537 nM, respectively. The values for the EC50 in experiment [1] and in experiment [2] were 0.0223 nM and 0.0229 nM, respectively.

Consider `CC[C@H](C)[C@H](NC(=O)[C@H](CC(C)C)NC(=O)[C@H](Cc1ccc(O)cc1)NC(=O)[C@H](CCC(=O)O)NC(=O)[C@@H](NC(=O)[C@H](Cc1ccccc1)NC(=O)[C@H](C)NC(=O)C(C)(C)NC(=O)[C@H](CCC(N)=O)NC(=O)[C@H](C)NC(=O)[C@H](CCCCNC(=O)COCCOCCNC(=O)COCCOCCNC(=O)CC[C@H](NC(=O)CCCCCCCCCCCCCCCCC(=O)O)C(=O)O)NC(=O)[C@H](CCC(=O)O)NC(=O)[C@H](CC(=O)O)NC(=O)[C@H](CC(C)C)NC(=O)[C@H](CC(C)C)NC(=O)[C@@H](NC(=O)[C@H](CO)NC(=O)[C@H](Cc1ccc(O)cc1)NC(=O)[C@H](CC(=O)O)NC(=O)[C@H](CO)NC(=O)[C@@H](NC(=O)[C@H](Cc1ccccc1)NC(=O)[C@@H](NC(=O)CNC(=O)[C@H](CCC(=O)O)NC(=O)C(C)(C)NC(=O)[C@@H](N)Cc1ccc(O)cc1)[C@@H](C)O)[C@@H](C)O)[C@@H](C)CC)[C@@H](C)CC)C(=O)N[C@@H](CCC(=O)O)C(=O)NCC(=O)NCC(=O)N1CCC[C@H]1C(=O)N[C@@H](CO)C(=O)N[C@@H](CO)C(=O)NCC(N)=O` [Example 268] (H-Y[Aib]EGTFTSDYSILLDEK([AEEA-AEEA-γGlu-C18 diacid])AQ[Aib]AFIEYLIEGGPSSG-NH2), for which the Ki at human Gcg receptor is greater than 1190 nM; on human GIP receptor, 0.0814 nM; at human GLP-1R, 3.98 nM. Besides, the values for the EC50 in experiment [1] and in experiment [2] were 0.0572 nM and 0.239 nM, respectively.

These data come from patent US12252524B2, “GIP/GLP1 co-agonist compounds” (Eli Lilly and Company, priority 2018, dated 2025).
